Measurements reported in patent publication US20260327193A1, “INHIBITORS OF PLASMA KALLIKREIN” (Rezolute, Inc., priority 2022, published 2026).

Legend:
Plasma Kallikrein [1] = molecular target: T1, Plasma Kallikrein (Homo sapiens, UniProt P03952); experiment: Plasma kallikrein activity in pooled human plasma; format: biochemical; design: Plasma Kallikrein activity was also measured in pooled human plasma; from tissue; host or cells: pooled human plasma; conditions: Z-FR-AMC substrate, activated with 10% Actin FS solution, 10 minutes, read-out: Pooled Human Plasma PKal IC50
T1 sequence (P03952 391-638 limits assumed): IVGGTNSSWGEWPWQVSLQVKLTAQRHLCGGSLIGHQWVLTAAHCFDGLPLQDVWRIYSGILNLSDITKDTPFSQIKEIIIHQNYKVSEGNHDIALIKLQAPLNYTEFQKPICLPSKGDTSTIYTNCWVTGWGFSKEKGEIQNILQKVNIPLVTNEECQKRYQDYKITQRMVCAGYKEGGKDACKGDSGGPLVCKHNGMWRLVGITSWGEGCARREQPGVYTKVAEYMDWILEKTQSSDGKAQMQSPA
T1 sequence (P03952 20-390 partner limits assumed): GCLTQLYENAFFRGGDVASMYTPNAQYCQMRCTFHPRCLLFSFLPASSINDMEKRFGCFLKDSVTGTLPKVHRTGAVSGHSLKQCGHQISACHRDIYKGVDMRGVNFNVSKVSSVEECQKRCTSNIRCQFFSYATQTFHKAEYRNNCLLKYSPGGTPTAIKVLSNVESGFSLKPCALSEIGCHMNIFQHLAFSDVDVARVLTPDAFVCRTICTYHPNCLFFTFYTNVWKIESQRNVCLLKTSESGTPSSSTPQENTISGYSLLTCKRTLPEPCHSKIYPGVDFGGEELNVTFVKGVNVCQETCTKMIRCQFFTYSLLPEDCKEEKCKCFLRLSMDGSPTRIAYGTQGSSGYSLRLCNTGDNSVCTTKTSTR
Procedure: (§1) Plasma kallikrein protease inhibition assay. Two methods for determining the IC50 of a test compound against Plasma Kallikrein are provided.
Second, Plasma Kallikrein activity was also measured in pooled human plasma. First, a 10% Actin FS solution was prepared in assay buffer. Each test compound was dissolved in DMSO and delivered to the reaction mixture along with Z-FR-AMC substrate and pooled human plasma. The multi-well reaction plate was incubated for five minutes at room temperature. To initiate the reaction, the 10% Actin FS solution was added to each well, and kinetic measurements were taken at Ex/Em at 355/460 nm. The fluorescence signal was recorded every 30 seconds for a total of 10 minutes.

Plasma Kallikrein [2] = molecular target: T1, Plasma Kallikrein; experiment: Plasma kallikrein protease inhibition assay, purified enzyme; format: biochemical; design: NS0-derived Gly20-Ala638, with a C-terminal 60-His tag; 60-His (so in the source) (C); purchased R&D Systems 2497-SE; host or cells: Mouse myeloma cell line, NS0; conditions: 10 μM Z-FR-AMC substrate, 20-minute pre-incubation, pH 8.0/8.5, room temperature, read-out: Purified PKal IC50
Procedure: as §1
In the first method was used a reaction buffer composed of 25 mM Tris-HCl (pH 8.0), 100 mM NaCl (pH 8.5), 0.01% Brij35, and 1% DMSO (final). The enzyme used was Plasma Kallikrein (R&D Systems Cat #2497-SE; Recombinant Human Plasma Kallikrein, expressed in Mouse myeloma cell line, NS0-derived Gly20-Ala638, with a C-terminal 60-His tag. MW=70 kDa).
The enzyme was activated by dilution to 200 μg/mL in activation buffer (100 mM Tris, 10 mM CaCl2, 150 mM NaCl, pH 7.5 (TCN), and then combined with an equal volume of 20 μg/mL thermolysin to form a reaction buffer. Each test compound was then dissolved in DMSO and delivered into the reaction buffer. The reaction was initiated by delivering a substrate solution containing 10 μM Z-FR-AMC (Enzo Cat #P-139; AMC: 7-Amino-4-methylcoumarin) into the reaction well after a 20-minute pre-incubation period.
Measurement was conducted with En Vision (PE) with excitation and emission wavelengths of 355 nm and 460 nm, respectively. […]. The enzyme activities were monitored every 5 minutes as a time-course measurement of the increase in signal from fluorescently labeled peptide substrate for 120 minutes at room temperature.
Data was analyzed by taking slope*(signal/time) of the linear portion of measurements. Slope was calculated using Excel, and curve fits were performed using Prism software.

[3] = Caco-2 permeability assay; format: in vitro ADME; conditions: human, 10 μM test compound, pH 7.4, 37° C., 120 minutes, direction of the value not given, read-out: Caco-2 Perm
Procedure: Permeability Assay. A permeability study was conducted using Caco-2 cells (ECACC Cat. no. 09042001) seeded on cell inserts plate (Millicell, Cat #PSHT010R^5) at a density of 80,000 cells per well, and the cells were maintained for 18-21 days in culture medium (1×DMEM with 10% FBS, 0.1 mg/mL Penicillin/Streptomycin). The culture medium was changed every alternate day. Prior to the experiments, the integrity of the cellular monolayer was evaluated by measuring the TEER value using a volt ohm meter and STX100C96 electrode. Only monolayers with TEER values greater than 800 ohm·cm^2 in buffer after the first wash were used.
An assay buffer (HBSS with Ca+2 and Mg+2 buffered with 10 mM HEPES and 25 mM D-Glucose, pH-7.4) was used on apical side as well as on basolateral side.
An intermediate stock solution of a test compound was prepared in DMSO at a concentration of 1 mM in DMSO. This stock solution was spiked in the assay buffer to achieve a target test compound concentration of 10 μM. The organic content of final drug preparation was 1.0% v/v. The bidirectional permeability experiment was done in singlet and the sample analysis was done in duplicate.
The cultured cell monolayer was washed twice with assay buffer (0.4 mL and 0.8 mL was added to the apical and basolateral sides, respectively, of the culture plate), and then buffers from both compartments were discarded.
For the apical to basal (AP>BL) experiment, aliquots of 0.4 mL donor solution (assay buffer, pH 7.4 containing test compound) and 0.8 mL of receiver solutions (assay buffer, pH 7.4, only) were added to the apical and basolateral compartments, respectively. For the basal to apical (BL>AP) experiment, aliquots of 0.8 mL donor solution (assay buffer pH-7.4 containing test compound) and 0.4 mL of receiver solutions (assay buffer, pH-7.4) were added to the basolateral and apical compartments, respectively. The plate was then kept in an incubator at 37° C. for 120 minutes.
Control experiments with Propranolol (High Permeability), Atenolol (Low Permeability), Digoxin (High Efflux-Pgp substrate), and Digoxin+Verapamil (Pgp Inhibitor) in both directions (AP>BL and BL>AP) were performed in separate wells on the same experiment day.
After the completion of the transport experiment, the integrity of the cell monolayer was evaluated by measuring the Lucifer Yellow (LY) rejection. To do this, 400 μL of 10 μM LY was added to each well of the filter plate and incubated for 1 hour at 37° C. Subsequently, the samples were collected from the basolateral compartments, and the LY fluorescence was measured using an excitation wavelength of 485 nm and an emission wavelength of 530 nm. The percent LY rejection across the cell monolayer was calculated by measuring fluorescence in the receiver plate (basolateral compartment) compared to theoretical equilibrium standard.
The study samples (collected from apical and basolateral compartments after 120 min incubation) were analyzed by LCMS/MS, following which the Papp of the compound(s) was calculated in both apical to basal and basal to apical directions. Papp=([DBL]×VBL)/(A×t×[DAP]) where: [DBL]=final drug concentration on the basolateral side, VBL=volume of the basolateral compartment, A=surface area of the cell culture, t=total incubation time, and [DAP]=initial drug concentration on the apical side.

| IC50 (Plasma Kallikrein [1]) | IC50 (Plasma Kallikrein [2]) | Papp at 2 h, 10 µM [3] | Structure (SMILES) |
| --- | --- | --- | --- |
| < 100 nM | < 1 nM | < 2 ×10⁻⁶ cm/s | N#Cc1cccc(Cc2ccc(Cn3cc(C(=O)NCc4ccc(C(=N)N)cc4F)cn3)cc2)c1 [Example 50, N-(4-carbamimidoyl-2-fluorobenzyl)-1-(4-(3-cyanobenzyl)benzyl)-1H-pyrazole-4-carboxamide] |
| 100 to 1000 nM | < 1 nM | < 2 ×10⁻⁶ cm/s | N#Cc1cccc(Cc2ccc(Cn3cc(C(=O)NCc4ccc(C(=N)N)c(F)c4)cn3)cc2)c1 [Example 49, N-(4-carbamimidoyl-3-fluorobenzyl)-1-(4-(3-cyanobenzyl)benzyl)-1H-pyrazole-4-carboxamide] |
| 100 to 1000 nM | 10 to 100 nM | < 2 ×10⁻⁶ cm/s | COc1cc(CNC(=O)c2cnn(Cc3ccc(C(C)(C)C#N)cc3)c2)cc(F)c1C(=N)N [Example 48, N-(4-carbamimidoyl-3-fluoro-5-methoxybenzyl)-1-(4-(2-cyanopropan-2-yl)benzyl)-1H-pyrazole-4-carboxamide] |
| < 100 nM | < 1 nM | 2 to 10 ×10⁻⁶ cm/s | COCCc1ccc(Cn2cc(C(=O)NCc3ccc(C(=N)N)cc3)cn2)cc1 [Example 15, N-(4-carbamimidoylbenzyl)-1-(4-(2-methoxyethyl)benzyl)-1H-pyrazole-4-carboxamide] |
| < 100 nM | < 1 nM | < 2 ×10⁻⁶ cm/s | CN(C)C(=O)Cc1ccc(Cn2cc(C(=O)NCc3ccc(C(=N)N)cc3)cn2)cc1 [Example 33, N-(4-carbamimidoylbenzyl)-1-(4-(2-(dimethylamino)-2-oxoethyl)benzyl)-1H-pyrazole-4-carboxamide] |
|  | 1 to 10 nM | < 2 ×10⁻⁶ cm/s | N=C(N)c1ccc(CNC(=O)c2cnn(Cc3ccc(CC(N)=O)cc3)c2)cc1 [Example 18, 1-(4-(2-amino-2-oxoethyl)benzyl)-N-(4-carbamimidoylbenzyl)-1H-pyrazole-4-carboxamide] |
| < 100 nM | < 1 nM | < 2 ×10⁻⁶ cm/s | N#Cc1cccc(Cc2ccc(Cn3cc(C(=O)NCc4ccc(C(=N)N)cc4)cn3)cc2)c1 [Example 28, N-(4-carbamimidoylbenzyl)-1-(4-(3-cyanobenzyl)benzyl)-1H-pyrazole-4-carboxamide] |
|  | < 1 nM | < 2 ×10⁻⁶ cm/s | N#CCCc1ccc(Cn2cnc(C(=O)NCc3ccc(C(=N)N)cc3)c2)cc1 [Example 4, N-(4-carbamimidoylbenzyl)-1-(4-(2-cyanoethyl)benzyl)-1H-imidazole-4-carboxamide] |
| < 100 nM | < 1 nM | < 2 ×10⁻⁶ cm/s | N#Cc1ccn(Cc2ccc(Cn3cc(C(=O)NCc4ccc(C(=N)N)cc4)cn3)cc2)c1 [Example 26, N-(4-carbamimidoylbenzyl)-1-(4-((3-cyano-1H-pyrrol-1-yl)methyl)benzyl)-1H-pyrazole-4-carboxamide] |
| < 100 nM | 10 to 100 nM | < 2 ×10⁻⁶ cm/s | COCCc1ccc(Cn2ncc(C(=O)NCc3ccc(C(=N)N)cc3)c2COC)cc1 [Example 87, N-(4-carbamimidoylbenzyl)-1-(4-(2-methoxyethyl)benzyl)-5-(methoxymethyl)-1H-pyrazole-4-carboxamide] |
| < 100 nM | 1 to 10 nM | < 2 ×10⁻⁶ cm/s | CC(C)(C#N)c1ccc(Cn2cc(C(=O)NCc3ccc(C(=N)N)c(F)c3)cn2)cc1 [Example 43, N-(4-carbamimidoyl-3-fluorobenzyl)-1-(4-(2-cyanopropan-2-yl)benzyl)-1H-pyrazole-4-carboxamide] |
|  | 1 to 10 nM | < 2 ×10⁻⁶ cm/s | CC(C)(C#N)c1ccc(Cn2cnc(C(=O)NCc3ccc(C(=N)N)cc3)c2)cc1 [Example 8, N-(4-carbamimidoylbenzyl)-1-(4-(2-cyanopropan-2-yl)benzyl)-1H-imidazole-4-carboxamide] |
|  | 1 to 10 nM | 2 to 10 ×10⁻⁶ cm/s | N#CCc1ccc(Cn2cnc(C(=O)NCc3ccc(C(=N)N)cc3)c2)cc1 [Example 9, N-(4-carbamimidoylbenzyl)-1-(4-(cyanomethyl)benzyl)-1H-imidazole-4-carboxamide] |
